We go through 18 compounds from ChEMBL document CHEMBL4402559, “Structure-Based Design and Pharmacokinetic Optimization of Covalent Allosteric Inhibitors of the Mutant GTPase KRASG12C” (J Med Chem, 2020).

Where only a bound is given, the exact number is not on record here.

Usually IC50 stands for the concentration at which inhibition is half-maximal. The term half-life denotes how long it takes for the measured level to halve. What is called logD is the decadic logarithm of the distribution of all forms, ionised or not, between an organic phase and buffer at a given pH. A word on the efflux ratio: it is a quotient of directional permeabilities that is used to spot active efflux. The term bioavailability denotes dose-corrected exposure relative to a reference, in per cent. Low readings indicate poor availability, high ones good availability.

The target of one data set is GTPase KRas (Homo sapiens, UniProt P01116, G12C). The experiment in a line: Inhibition of GDP bound biotinylated human C-terminal Avi/His6-tagged KRAS G12C mutant (1 to 166 residues) expressed in Escherichia coli BL21 (DE3) assessed as reduction in SOS1-mediated GDP/GTP nucleotide exchange by preventing recognition between KRAS G12C mutant and Ras binding domain of N-terminal Avi/GST-tagged Raf-1 (51 to 149 residues) preincubated for 4 hrs followed by SOS1 and GTPgammaS addition by FRET assay.

Data set [1] in a line: GSH reactivity in PBS buffer assessed as half life at pH 7.4 and 37 degree C in presence of glutathione. It counts as physicochemical. The following applies: PBS buffer with glutathione.
Data set [2] can be described thus: Intrinsic clearance in human liver microsomes. It counts as ADME, Microsome. The following applies: for microsomal CLint: liver microsomes, read-out: CLH. (In general: Liver microsomes are a subcellular fraction often used to study metabolism.)
Data set [3] in a line: Distribution coefficient, log D of compound at pH 7.4. The following applies: octanol/water. It counts as physicochemical.
The nature of data set [4]: Intrinsic clearance in rat hepatocytes assessed per 10^-6 cells. It counts as ADME, cell-based, Hepatocyte.
Data set [5] can be described thus: Clearance in Han Wistar rat at 2 umol/kg, po or 1 umol/kg, iv. The following applies: in vivo.
The nature of data set [6]: Efflux ratio of apparent permeability in human Caco2 cells at 10 uM at pH 7.4. It counts as ADME, cell-based. The following applies: Caco-2, pH 7.4.
Data set [7] is described as follows: Volume of distribution at steady state in Han Wistar rat at 2 umol/kg, po or 1 umol/kg, iv. The following applies: in vivo.
Another data set can be described thus: in vivo. The following applies: Han Wistar, rat, po, 2 umol/kg.

For `C=CC(=O)N1C[C@@H]2COc3cnc4cc(-c5c(O)cccc5F)c(Cl)cc4c3N2C[C@@H]1C`, at GTPase KRas, the IC50 is 7650 nM. Further, the half-life in [1] was found to be 9.75 h. The microsomal CLint in data set [2] was 100 µL/min/mg. Besides, the logD in data set [3] (read-out: logD) amounted to 3.7. This compound showed a hepatocyte intrinsic clearance in data set [4] of 74 µL/min.

In the case of `C=CC(=O)N1CCN2c3c(cnc4c(C)c(-c5c(O)cccc5F)c(Cl)cc34)OC[C@H]2C1` (single isomer, unassigned; atropisomer), the microsomal CLint in data set [2] was 28 µL/min/mg. The logD in [3] (read-out: logD) was found to be 3.8. Also, the hepatocyte intrinsic clearance in data set [4] turned out to be 40 µL/min.

Take `C=CC(=O)N1CCN2c3c(cnc4c(OC)c(-c5c(O)cccc5F)c(Cl)cc34)OC[C@H]2C1` (single isomer, unassigned; atropisomer 2): the IC50 on GTPase KRas was 70 nM. For the same compound, in data set [2], the microsomal CLint amounted to 40 µL/min/mg. Moreover, the logD in data set [3] (read-out: logD) was 3. In data set [4], this compound showed a hepatocyte intrinsic clearance of 56 µL/min.

In the case of `C=CC(=O)N1CCN2c3c(cnc4c(F)c(-c5c(O)cccc5F)c(Cl)cc34)N(C)C(=O)[C@H]2C1`, the clearance in [5] turned out to be 6 mL/min/kg. In addition, the half-life in data set [1] worked out at 15.5 h. Further, the microsomal CLint in data set [2] is 21 µL/min/mg. In addition, the efflux ratio at 10 µM in [6] was determined as 1.5. For the same compound, the Vd in data set [7] was found to be 0.8 L/kg. This compound also came in with a bioavailability in the data set “in vivo” of 56%. Also, the logD in data set [3] (read-out: logD) stood at 2.9. Further, the hepatocyte intrinsic clearance in [4] amounted to 10 µL/min.

Take `C=CC(=O)N1CCN2c3c(cnc4cc(-c5c(O)cccc5F)c(Cl)cc34)N(C)C(=O)[C@H]2C1`: the IC50 on GTPase KRas worked out at 150 nM. For the same compound, the microsomal CLint in data set [2] turned out to be 24 µL/min/mg. Moreover, in data set [6], the efflux ratio at 10 µM turned out to be 0.9. Also, the logD in [3] (read-out: logD) is 3. The hepatocyte intrinsic clearance in data set [4] was found to be 7 µL/min.

`C=CC(=O)N1CCN2c3c(cnc4cc(-c5c(O)cccc5F)c(Cl)cc34)NC[C@H]2C1`: the microsomal CLint in [2] came to 18 µL/min/mg. Also, the efflux ratio at 10 µM in [6] was 1.4. In data set [3] (read-out: logD), the logD amounted to 3.3. For the same compound, the hepatocyte intrinsic clearance in data set [4] was 17 µL/min.

`C=CC(=O)N1CCN(c2ncnc3cc(-c4c(C)ccc5[nH]ncc45)c(Cl)cc23)CC1`: the IC50 at GTPase KRas was 496 nM. Besides, the microsomal CLint in data set [2] amounted to 38 µL/min/mg. Further, in [3] (read-out: logD), the logD was 3.5. Moreover, the hepatocyte intrinsic clearance in data set [4] amounted to 56 µL/min.

Regarding `C=CC(=O)N1CCN2c3c(cnc4cc(-c5c(O)cccc5F)c(Cl)cc34)NC(=O)[C@H]2C1`, the IC50 on GTPase KRas was found to be 73 nM. Also, the microsomal CLint in data set [2] was found to be 34 µL/min/mg. The efflux ratio at 10 µM in [6] stood at 17.9. For the same compound, the logD in data set [3] (read-out: logD) is 3. In [4], this compound returned a hepatocyte intrinsic clearance of 11 µL/min.

The compound `C=CC(=O)N1C[C@@H]2COc3cnc4cc(-c5c(O)cccc5F)c(Cl)cc4c3N2C[C@H]1C` displayed a clearance in data set [5] of 7 mL/min/kg. Besides, on GTPase KRas, the IC50 was 52 nM. Moreover, the half-life in [1] came out at 5.42 h. Further, in data set [2], the microsomal CLint was found to be 32 µL/min/mg. Moreover, the efflux ratio at 10 µM in [6] was determined as 0.7. This compound also showed a Vd in [7] of 0.6 L/kg. This compound also returned a bioavailability in the data set “in vivo” of 96%. Besides, the logD in data set [3] (read-out: logD) was 3.8. Further, the hepatocyte intrinsic clearance in data set [4] turned out to be 42 µL/min.

For the compound `C=CC(=O)N1CCN2c3c(cnc4cc(-c5c(C)ccc6[nH]ncc56)c(Cl)cc34)OC[C@H]2C1` (single isomer, unassigned; atropisomer 1), in [2], the “Intrinsic clearance in human liver microsomes” value was determined as 165 µL/min/mg. In [3] (read-out: logD), the logD stood at 4.2. The hepatocyte intrinsic clearance in data set [4] was 174 µL/min.

On to `C=CC(=O)N1CCN2c3c(cnc4cc(-c5c(O)cccc5F)c(Cl)cc34)N(C)C[C@H]2C1`, for which the microsomal CLint in data set [2] stood at 26 µL/min/mg. For the same compound, in data set [6], the efflux ratio at 10 µM was determined as 1.5. Besides, in [3] (read-out: logD), the logD was determined as 4.1. Also, the hepatocyte intrinsic clearance in [4] amounted to 99 µL/min.

As to `C=CC(=O)N1CCN2c3c(cnc4cc(-c5c(C)ccc6[nH]ncc56)c(Cl)cc34)OC[C@@H]2C1` (single isomer, unassigned; atropisomer 2), the IC50 on GTPase KRas came out at 610 nM. The microsomal CLint in data set [2] was found to be 103 µL/min/mg. Also, the logD in [3] (read-out: logD) stood at 4.3. For the same compound, in data set [4], the hepatocyte intrinsic clearance was determined as 75 µL/min.

On to `C=CC(=O)N1CCN2c3c(cnc4cc(-c5c(C)ccc6[nH]ncc56)c(Cl)cc34)OC[C@@H]2C1` (single isomer, unassigned; atropisomer 1), for which the IC50 on GTPase KRas came out at 8860 nM. The “Intrinsic clearance in human liver microsomes” value in [2] was 121 µL/min/mg. In data set [3], the logD worked out at 4. In data set [4], this compound registered a hepatocyte intrinsic clearance of 67 µL/min.

Turning to `C=CC(=O)N1CCN2c3c(cnc4c(F)c(-c5c(O)cccc5F)c(Cl)cc34)OC[C@H]2C1` (atropisomer aR), at GTPase KRas, the IC50 was determined as 16 nM. Also, the microsomal CLint in [2] stood at 17 µL/min/mg. Besides, the logD in data set [3] (read-out: logD) worked out at 3.4. In [4], this compound registered a hepatocyte intrinsic clearance of 22 µL/min.

As to `C=CC(=O)N1CCN2c3c(cnc4cc(-c5c(C)ccc6[nH]ncc56)c(Cl)cc34)OC[C@H]2C1` (single isomer, unassigned; atropisomer 2), the IC50 at GTPase KRas turned out to be 1380 nM. For the same compound, the “Intrinsic clearance in human liver microsomes” value in data set [2] is 46 µL/min/mg. This compound also displayed a logD in data set [3] of more than 4.2. Besides, the hepatocyte intrinsic clearance in data set [4] is 65 µL/min.

Turning to `C=CC(=O)N1CCN2c3c(cnc4cc(-c5c(C)ccc6[nH]ncc56)c(Cl)cc34)OCC[C@@H]2C1`, the IC50 on GTPase KRas was 4340 nM. Besides, the microsomal CLint in data set [2] turned out to be 81 µL/min/mg. The compound also had a hepatocyte intrinsic clearance in data set [4] of 104 µL/min.

Take `C=CC(=O)N1CCN2c3c(cnc4cc(-c5c(C)ccc6[nH]ncc56)c(Cl)cc34)OCC[C@H]2C1`: on GTPase KRas, the IC50 is 627 nM. The microsomal CLint in [2] was more than 300 µL/min/mg. Further, in data set [4], the hepatocyte intrinsic clearance turned out to be 102 µL/min.

In data set [5], `C=CC(=O)N1CCN2c3c(cnc4cc(-c5c(O)cccc5F)c(Cl)cc34)OC[C@H]2C1` showed a clearance of 35 mL/min/kg. The half-life in [1] is 6.93 h. In addition, the microsomal CLint in [2] was determined as 25 µL/min/mg. In addition, the efflux ratio at 10 µM in [6] was determined as 0.5. This compound also gave a Vd in [7] of 1.2 L/kg. This compound also returned a bioavailability in the data set “in vivo” of 64%. For the same compound, the log distribution coefficient (logD) in [3] (read-out: logD) turned out to be 3.6. In [4], this compound returned a hepatocyte intrinsic clearance of 32 µL/min.
